In patent US9611262B2, “Substituted 2-azabicycles and their use as orexin receptor modulators” (JANSSEN PHARMACEUTICA NV, priority 2014, dated 2017):

Experiments:
[1] = molecular target: rat orexin 1 receptor (Rattus norvegicus, UniProt P56718); experiment: Rat orexin 1 receptor radioligand binding (competitive); conditions: HEK293 cells stably expressing rat orexin 1 receptor; 4 nM radioligand; averages of 2-20 runs; read-out: rOX1 Ki
Method in brief: (§1)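 Competition binding used HEK293 cells expressing rat OX1 or CHO cells expressing human OX1, with 4 nM final [3H]-labelled thiazolyl-oxadiazolyl-pyrrolidinyl methanone radioligand in PBS. Compounds were tested at 7 concentrations (0.1 nM–10 μM) for 60 min at room temperature, then filtered; 10 μM almorexant defined nonspecific binding. Ki was derived from the one-site IC50 and the radioligand Kd.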

[2] = molecular target: human orexin 1 receptor (Homo sapiens (Human), UniProt O43613); experiment: Human orexin 1 receptor radioligand binding (competitive); conditions: CHO cells stably expressing human orexin 1 receptor; 4 nM radioligand; averages of 2-20 runs; read-out: hOX1 Ki
Method in brief: as §1

[3] = molecular target: human orexin 2 receptor (Homo sapiens (Human), UniProt O43614); experiment: Human orexin 2 receptor radioligand binding ([3H]-EMPA competition); conditions: HEK293 stably expressing human orexin 2 receptor; 2 nM [3H]-EMPA; averages of 2-20 runs; read-out: hOX2 Ki
Method in brief: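 Membranes-free whole HEK293 cells stably expressing human OX2 receptor incubated with [3H]-EMPA and compound (7 concentrations, 0.1 nM–10 μM, ≤0.1% DMSO) for 60 min at room temperature; nonspecific binding with 10 μM almorexant. Filtration and scintillation counting; one-site IC50 converted to Ki using predetermined Kd, triplicates averaged over 2-20 runs.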

Sequence of human orexin 1 receptor (O43613 whole entry): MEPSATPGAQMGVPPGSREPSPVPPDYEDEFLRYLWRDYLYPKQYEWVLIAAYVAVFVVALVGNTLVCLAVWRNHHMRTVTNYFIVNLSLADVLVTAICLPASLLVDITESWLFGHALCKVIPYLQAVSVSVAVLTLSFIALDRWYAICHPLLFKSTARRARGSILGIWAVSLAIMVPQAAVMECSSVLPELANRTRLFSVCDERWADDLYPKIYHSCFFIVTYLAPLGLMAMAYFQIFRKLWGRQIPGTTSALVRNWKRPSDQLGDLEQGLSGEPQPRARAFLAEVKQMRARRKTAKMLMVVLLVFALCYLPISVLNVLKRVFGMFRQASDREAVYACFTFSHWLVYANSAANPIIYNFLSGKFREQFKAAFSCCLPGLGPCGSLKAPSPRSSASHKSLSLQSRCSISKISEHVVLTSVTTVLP
Sequence of human orexin 2 receptor (O43614 whole entry): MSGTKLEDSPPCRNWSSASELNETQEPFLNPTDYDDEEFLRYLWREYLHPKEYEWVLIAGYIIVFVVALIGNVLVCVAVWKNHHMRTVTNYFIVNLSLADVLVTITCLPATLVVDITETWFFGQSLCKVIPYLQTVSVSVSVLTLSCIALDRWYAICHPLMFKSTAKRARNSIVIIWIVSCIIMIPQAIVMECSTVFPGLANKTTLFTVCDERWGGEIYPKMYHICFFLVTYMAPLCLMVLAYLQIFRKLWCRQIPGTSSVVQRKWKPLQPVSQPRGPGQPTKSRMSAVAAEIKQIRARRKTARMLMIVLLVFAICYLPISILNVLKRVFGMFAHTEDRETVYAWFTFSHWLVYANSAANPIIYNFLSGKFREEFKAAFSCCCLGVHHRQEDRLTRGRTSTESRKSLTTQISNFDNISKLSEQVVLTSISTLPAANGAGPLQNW

| Compound | Ki [1] | Ki [2] | Ki [3] |
| --- | --- | --- | --- |
| CC1C2CC(Oc3ccc(C(F)(F)F)cn3)C(C2)N1C(=O)c1cccc(F)c1-c1ncccn1 (single isomer, unassigned) [Example 8, (R/S)-(3-fluoro-2-(pyrimidin-2-yl)phenyl)(3-methyl-6-((5-(trifluoromethyl)pyridin-2-yl)oxy)-2-azabicyclo[2.2.1]heptan-2-yl)methanone] | 0.011 µM | 0.016 µM | 1.1 µM |
| Cc1ccc(-c2ncccn2)c(C(=O)N2[C@H](C)[C@H]3C[C@@H](Nc4ccc(C(F)(F)F)cn4)[C@@H]2C3)n1 [Example 60, (6-methyl-3-(pyrimidin-2-yl)pyridin-2-yl)((1S,3R,4S,6R)-3-methyl-6-((5-(trifluoromethyl)pyridin-2-yl)amino)-2-azabicyclo[2.2.1]heptan-2-yl)methanone] | 0.016 µM | 0.019 µM | 0.349 µM |
| Cc1ccc(-n2nccn2)c(C(=O)N2C(C)C3CC(Oc4cnc(C(F)(F)F)cn4)C2C3)n1 (racemic) [Example 42, (R/S)-(6-methyl-3-(2H-1,2,3-triazol-2-yl)pyridin-2-yl)(3-methyl-6-((5-(trifluoromethyl)pyrazin-2-yl)oxy)-2-azabicyclo[2.2.1]heptan-2-yl)methanone] | 0.055 µM | 0.045 µM | > 10 µM |
| Cc1cnc(C(=O)N2[C@H](C)[C@@H]3CC[C@H]2[C@H](Oc2ccc(C(F)(F)F)cn2)C3)c(-n2nccn2)c1 [Example 160, [5-methyl-3-(triazol-2-yl)-2-pyridyl]-[(1R,2R,4S,5R)-2-methyl-5-[[5-(trifluoromethyl)-2-pyridyl]oxy]-3-azabicyclo[2.2.2]octan-3-yl]methanone] | 0.008 µM | 0.011 µM | 0.872 µM |
| O=C(c1cc(F)ccc1-c1ncccn1)N1[C@H](CF)[C@@H]2CC[C@H]1[C@H](Oc1ccc(C(F)(F)F)cn1)C2 [Example 76, (5-fluoro-2-(pyrimidin-2-yl)phenyl)((1S,3S,4R,6R)-3-(fluoromethyl)-6-((5-(trifluoromethyl)pyridin-2-yl)oxy)-2-azabicyclo[2.2.2]octan-2-yl)methanone] | 0.036 µM | 0.046 µM | > 10 µM |
| CC(C)CC1C2CC(Oc3ccc(C(F)(F)F)cn3)C(C2)N1C(=O)c1ccccc1-c1ncc(F)cn1 (racemic) [Example 212, (R/S)-[2-(5-fluoropyrimidin-2-yl)phenyl]-[2-isobutyl-5-[[5-(trifluoromethyl)-2-pyridyl]oxy]-3-azabicyclo[2.2.1]heptan-3-yl]methanone] | 0.1 µM | 0.055 µM | 3.8 µM |
| CC1C2CC(Oc3ccc(C(F)(F)F)cn3)C(C2)N1C(=O)c1cccc(F)c1-c1ncccn1 (single isomer, unassigned) [Example 1, (R/S)-(3-fluoro-2-(pyrimidin-2-yl)phenyl)(3-methyl-6-((5-(trifluoromethyl)pyridin-2-yl)oxy)-2-azabicyclo[2.2.1]heptan-2-yl)methanone] | 0.024 µM | 0.084 µM | 5.2 µM |
| C[C@@H]1[C@H]2C[C@@H](Oc3cnc4cc(F)ccc4n3)[C@H](C2)N1C(=O)c1ccccc1-n1nccn1 (relative stereo) [Example 188, (2-(2H-1,2,3-triazol-2-yl)phenyl)((1S*,3R*,4R*,6R*)-6-((6-fluoroquinoxalin-2-yl)oxy)-3-methyl-2-azabicyclo[2.2.1]heptan-2-yl)methanone] | 0.006 µM | 0.007 µM | 0.107 µM |
| C[C@@H]1[C@H]2C[C@@H](Oc3cnc4cc(F)ccc4n3)[C@H](C2)N1C(=O)c1cccc(F)c1-n1nccn1 (relative stereo) [Example 187, (3-fluoro-2-(2H-1,2,3-triazol-2-yl)phenyl)((1S*,3R*,4R*,6R*)-6-((6-fluoroquinoxalin-2-yl)oxy)-3-methyl-2-azabicyclo[2.2.1]heptan-2-yl)methanone] | 0.007 µM | 0.006 µM | 0.136 µM |
| Cc1ccc(Br)c(C(=O)N2C(C)C3CC(Nc4cnc(C(F)(F)F)cn4)C2C3)n1 (racemic) [Example 7, (R/S)-(3-bromo-6-methylpyridin-2-yl)(3-methyl-6-((5-(trifluoromethyl)pyrazin-2-yl)amino)-2-azabicyclo[2.2.1]heptan-2-yl)methanone] | 0.125 µM | 0.144 µM | 1.2 µM |
| Cc1ccc(-n2nccn2)c(C(=O)N2[C@H](C)[C@H]3C[C@@H](Nc4ccc(C(F)(F)F)cn4)[C@@H]2C3)n1 (relative stereo) [Example 63, (6-methyl-3-(2H-1,2,3-triazol-2-yl)pyridin-2-yl)((1S*,3R*,4S*,6R*)-3-methyl-6-((5-(trifluoromethyl)pyridin-2-yl)amino)-2-azabicyclo[2.2.1]heptan-2-yl)methanone] | 0.003 µM | 0.004 µM | 0.078 µM |
| Cc1cnc(C(=O)N2C(CC(C)C)C3CC(Oc4ccc(C(F)(F)F)cn4)C2C3)c(-n2nccn2)c1 (racemic) [Example 208, (R/S)-[2-isobutyl-5-[[5-(trifluoromethyl)-2-pyridyl]oxy]-3-azabicyclo[2.2.1]heptan-3-yl]-[5-methyl-3-(triazol-2-yl)-2-pyridyl]methanone] | 0.177 µM | 0.17 µM | 0.418 µM |
| O=C(c1cc(F)ccc1-c1ncc(F)cn1)N1[C@H](CF)[C@@H]2CC[C@H]1[C@H](Oc1ccc(C(F)(F)F)cn1)C2 [Example 80, (5-fluoro-2-(5-fluoropyrimidin-2-yl)phenyl)((1S,3S,4R,6R)-3-(fluoromethyl)-6-((5-(trifluoromethyl)pyridin-2-yl)oxy)-2-azabicyclo[2.2.2]octan-2-yl)methanone] | 0.043 µM | 0.035 µM | 4.17 µM |
| C[C@@H]1[C@H]2C[C@@H](Oc3ccc(C(F)(F)F)nc3)[C@H](C2)N1C(=O)c1cccc(F)c1-n1nccn1 (relative stereo) [Example 38, (3-fluoro-2-(2H-1,2,3-triazol-2-yl)phenyl)((1S*,3R*,4R*,6R*)-3-methyl-6-((6-(trifluoromethyl)pyridin-3-yl)oxy)-2-azabicyclo[2.2.1]heptan-2-yl)methanone] | 0.216 µM | 0.283 µM | 4.9 µM |
| CCC1C2CC(Oc3ccc(C(F)(F)F)cn3)C(C2)N1C(=O)c1cccc(F)c1-c1ncccn1 (racemic) [Example 217, (R/S)-[2-ethyl-5-[[5-(trifluoromethyl)-2-pyridyl]oxy]-3-azabicyclo[2.2.1]heptan-3-yl]-(3-fluoro-2-pyrimidin-2-yl-phenyl)methanone] | 0.013 µM | 0.009 µM | 0.243 µM |
